Entries after “also recorded” stand apart in the source; their conditions may differ.
Experiments:
lung Col1a1 expression [1] = test: Precision cut lung slices of mice under chronic bleomycin exposure (vs pirfenidone and nintedanib); type: cell-based, mouse; conditions: slices cultured 7 days; nintedanib and pirfenidone at 10x therapeutic concentrations
Protocol: (§1) Mice (C57BL/6) were administered 3 U/kg of bleomycin (Teva Pharmaceuticals; North Wales, PA) on Day 0 and 1 U/kg of bleomycin on days 14, 28, 42 and 56 via oropharyngeal aspiration while under anesthesia. At day 70, 14 days following the final bleomycin insult, precision cut lung slices were obtained. Following euthanization, 2% low gelling temp agarose was injected into the mouse lungs via the trachea. […] The lobes were then subjected to precision slicing to obtain samples for culture using a microtome (Compresstome VF-300-0Z, Precisionary; Greenville, NC). Individual slices were distributed in a multiwell culture plate and cultured for 7 days under control (DMSO) and test compound conditions. The viability of the slices over the course of culturing was confirmed by WST-1 assay of mitochondrial activity.
During the culture period, slices in the control group were treated with DMSO and slices in the test group were treated with a DMSO solution of one of: compound 5; nintedanib; pirfenidone; a combination of nintedanib and compound 5; a combination of pirfenidone and compound 5; or the small molecule ALK5 inhibitor. Compound 5 was […] effective to equal or exceed its respective IC50 values at αvβ6 and αvβ1. The small molecule ALK5 inhibitor was analyzed at 10x its reported IC50 value. Nintendanib and pirfenidone were analyzed at concentrations 10x their reported therapeutic concentrations.

[2] = test system: patients with idiopathic pulmonary fibrosis (IPF); test: Phase 2a trial in IPF: FVC, QLF, biomarkers; type: in vivo, human; conditions: for proportion of patients with ≥10% decline in FVCpp: 12 weeks
Text: The exploratory endpoints of the trial measured changes in forced vital capacity (FVC), HRCT-based Quantitative Lung Fibrosis score (QLF), and selected biomarkers over 3 months of treatment.

lung Col1a1 expression [3] = test: Precision cut lung slices of mice under chronic bleomycin exposure (single vs dual integrin inhibition); type: cell-based, mouse; conditions: slices cultured 7 days
Protocol: as §1, with “after” for “following”, “The viability of the slices over the course of culturing was confirmed by WST-1 assay of mitochondrial activity.” left out
During the culture period, slices in the control group were treated with DMSO and slices in the test group were treated with a DMSO solution of one of: the selective antibody αvβ6 inhibitor 3G9; the αvβ1-selective small molecule inhibitor; a combination of the selective antibody αvβ6 inhibitor 3G9 and the αvβ1-selective small molecule inhibitor; compound 5; and the small molecule ALK5 inhibitor. The selective αvβ1 and αvβ6 integrin inhibitors were analyzed at ≥ their respective IC90 concentrations for inhibition of TGF-beta activation. […] The small molecule ALK5 inhibitor was analyzed at 10x its reported IC50 value.

[4] = test system: IPF-derived human lung fibroblasts; test: LAP adhesion assay (xCELLigence cell index), lung fibroblasts; type: cell-based; conditions: IPF-derived lung fibroblasts (express αvβ1)
Protocol: Two latency associated peptide (LAP) adhesion binding assays were devised using primary human lung cells, including normal (healthy) human bronchial epithelial cells and human lung fibroblasts (healthy and IPF).
Human lung fibroblasts derived from normal and IPF lung tissue are known to express αvβ1 integrin. […] In the assay, the IPF-derived human lung fibroblasts were separately incubated with: the αvβ1-selective small molecule inhibitor; the selective antibody αvβ6 inhibitor, 3G9; and compound 5.

pSmad2/Smad2 = test: Alveolar pSmad2/Smad2 in BAL, prior study (80 mg and 160 mg QD); type: in vivo; conditions: p<0.0001
Text: FIG. 12 through FIG. 36 illustrate various results from the clinical trial. […] BAL - bronchoalveolar lavage; pSmad2/Smad2 - ratio of phosphorylated Smad2 to total Smad2; QD - once daily.

SMAD3 phosphorylation = test: Murine bleomycin model: SMAD3 phosphorylation; type: in vivo, mouse; conditions: bleomycin mice
Protocol: Mice (C57BL/6) were divided into healthy (n=15), vehicle-treated (n=15), and test article-treated (n=15 per dose) groups. Mice in the vehicle and test article-treated groups were administered 3 U/kg of bleomycin (Teva Pharmaceuticals; North Wales, PA) via oropharyngeal aspiration while under anesthesia on day 0. Healthy animals were administered water in a similar fashion. Starting on day 7, mice in the control group were administered PBS vehicle, 130 uL, by oral gavage, BID for 14 days. Also starting on day 7, mice in the test group were administered compound 5 in PBS by oral gavage, BID for 14 days, at relative dosages of 1x, 2.5x and 5x. […] From day 14 through day 21, 9 of the 15 mice were administered ^2H2O for labeling. All mice were sacrificed on day 21 and tissues were collected. Samples were prepared for analysis either directly from lung tissue, or by bronchoalveolar lavage, which washes out the bronchiolar and alveolar space with saline to produce a bronchoalveolar lavage fluid (BALF) in which 80-90% of cells are alveolar macrophages.
FIG. 4C is a graph showing that compared to the healthy mice, lung tissue in the vehicle-treated mice experienced a substantial increase in SMAD3 phosphorylation, which is a measure of TGF-β signaling-related kinase activity. […]

SMILES: COCCN(CCCCc1ccc2c(n1)NCCC2)CC[C@H](Nc1ncnc2ccccc12)C(=O)O [Compound 5, (S)-4-((2-methoxyethyl)(4-(5,6,7,8-tetrahydro-1,8-naphthyridin-2-yl)butyl)amino)-2-(quinazolin-4-ylamino)butanoic acid]
- lung Col1a1 expression vs DMSO control (lung Col1a1 expression [1]): substantial, statistically significant
- LS Mean change from baseline in FVC at week 12, not on SoC subgroup ([2]; 40 mg (N=5)): -43.1 mL
- Mean Percent Change in QLF extent from baseline to Week 12 ([2]; 40 mg (N=15)): 3.15%
- LS Mean change from baseline in FVC at week 12, on SoC subgroup ([2]; 40 mg (N=17)): -58.3 mL
- change in FVC from baseline to Week 12 ([2]; 40 mg dose group): -46.1 mL
- reduction in FVC decline relative to placebo ([2]; 40 mg dose group): 38%
- proportion of patients with ≥10% decline in FVCpp ([2]; 40 mg group): 18.2%
- LS Mean change from baseline in FVC at week 12, not on SoC subgroup ([2]; 80 mg (N=4)): +138.1 mL
- Mean Percent Change in QLF extent from baseline to Week 12 ([2]; 80 mg (N=18)): 0.70%
- LS Mean change from baseline in FVC at week 12, on SoC subgroup ([2]; 80 mg (N=19)): -11.9 mL
- change in FVC from baseline to Week 12 ([2]; 80 mg dose group): +24.6 mL
- proportion of patients with > 2% increase in QLF at 12 weeks ([2]; 80 mg group): 11%
- proportion of patients with ≥10% decline in FVCpp ([2]; 80 mg group): 8.7%
- Mean Percent Change in QLF extent from baseline to Week 12 ([2]; 160 mg (N=14)): 0.00%
- LS Mean change from baseline in FVC at week 12, not on SoC subgroup ([2]; 160 mg (n=3)): +25.8 mL
- LS Mean change from baseline in FVC at week 12, on SoC subgroup ([2]; 160 mg (n=19)): -47.5 mL
- change in FVC from baseline to Week 12 ([2]; 160 mg dose group): -25.1 mL
- reduction in FVC decline relative to placebo ([2]; 160 mg dose group): 66%
- proportion of patients with a decrease in QLF (>2% change) at 12 weeks ([2]; 160 mg group): 26.7%
- proportion of patients with stable QLF (-2 to 2% change) at 12 weeks ([2]; 160 mg group): 46.6%
- proportion of patients with ≥10% decline in FVCpp ([2]; 160 mg group): 4.5%
- serum PRO-C3 (type III collagen synthesis) change from baseline vs placebo ([2]; not significant): decreased; also recorded: reduced
- serum PRO-C6 (type VI collagen synthesis) change from baseline vs placebo ([2]; not significant): decreased; also recorded: reduced
- change in FVC from baseline to Week 12 ([2]; pooled Compound 5 groups): -15.1 mL
- lung Col1a1 expression vs DMSO control (lung Col1a1 expression [3]): decreased lung Col1a1 expression substantially
- inhibition of cell adhesion to LAP [4]: substantially inhibited
- percent change of alveolar pSmad2/Smad2 from baseline at 24 hours vs placebo (pSmad2/Smad2): statistically significant
- pSMAD3 levels in the lung, % of the untreated levels (SMAD3 phosphorylation): approximately 50%
- SMAD3 phosphorylation in lung tissue vs vehicle (SMAD3 phosphorylation; 1x, 2.5x, 5x dose PO BID 14 days from day 7): substantial, statistically significant dose-dependent reductions
